Assay results as given in publication PMC5607274, “An iterative compound screening contest method for identifying target protein inhibitors using the tyrosine-protein kinase Yes” (Scientific Reports, 2017).

Experiments:
[1] = target: T1, human recombinant Yes [a.a. 2–543 (end)] (Homo sapiens, UniProt P07947); assay: ADP-Glo kinase assay, IC50 determination (dose-response curves) for Yes; format: biochemical; conditions: for dose-response relationship (DRR): IC50 determination; for "inhibition activity" in the whole range of concentrations: dose-response test, no DRR; for IC50: 5.5-nmol L−1 Yes, 0.013-mmol L−1 ATP, 0.2-mg mL−1 substrate (poly Glu-Tyr, 4:1)
T1 construct: human recombinant Yes [a.a; 2–543 (end)]; purchased BPS Bioscience 40488
Procedure: All inhibitory assays of the phosphorylation activity of Yes were performed in accordance with the Promega Technical Manual for the ADP-Glo™ Kinase Assay (Fitchburg, WI, USA. Catalog number: V9102). The human recombinant Yes [a.a. 2–543 (end)] was purchased from BPS Bioscience (catalog number: 40488). The details of the assay protocol and reagent information are given elsewhere.
The screening was conducted in three steps consisting of the first screening, the second screening, and the IC50 determination, as can be illustrated in Fig. 1b. First, we determined the inhibition rates of the 1,991 compounds. Each compound was placed in 4 wells of a 384-well plate. In total, 80 compounds were assayed on one plate and the other wells were used for positive and negative controls. The compounds were randomly placed on plates so that compounds proposed by one group were not placed on a plate together. A mean of four inhibition rates for each compound was compared to criteria for the first screening. […] Second, the inhibition rates of the screened compounds were determined on one plate using the same procedure of the first screening, where compounds were dissolved from fresh powder. […] Screened compounds were then evaluated for their IC50 values. […]
determine their IC50 values. Each dose-response curve was initially built using 8-point, 2-fold serial dilutions starting at 100 μmol L−1, with each concentration point in 4 […]
Assay was carried out under the same conditions as the primary screening, in summary, the final reagent concentrations were 5.5-nmol L−1 Ye s , 0.013-mmol L−1 ATP, and 0.2-mg mL−1 substrate (poly Glu-Tyr peptides, Glu:Tyr=4:1).
The curves were analyzed by GraphPad Prism (sigmoidal fit with variable slope). IC50 […]
standard deviations of the measurements.

[2] = target: T1, human recombinant Yes [a.a. 2–543 (end)]; assay: ADP-Glo kinase assay, inhibition rates of Yes phosphorylation activity (first and second screening); format: biochemical; conditions: 10 μmol L−1 compound; for First screening IR (inhibition rate): mean of n = 4 wells; for Second screening IR (inhibition rate): dissolved from fresh powder, n = 4
Procedure, shortened: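 ADP-Glo luminescence measured inhibition of human recombinant Yes (a.a. 2–543) phosphorylation activity. In the first screen, each compound ran in 4 wells and inhibition rates were averaged. The second screen retested hits as compounds dissolved from fresh powder.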

T1 sequence (P07947 2-543): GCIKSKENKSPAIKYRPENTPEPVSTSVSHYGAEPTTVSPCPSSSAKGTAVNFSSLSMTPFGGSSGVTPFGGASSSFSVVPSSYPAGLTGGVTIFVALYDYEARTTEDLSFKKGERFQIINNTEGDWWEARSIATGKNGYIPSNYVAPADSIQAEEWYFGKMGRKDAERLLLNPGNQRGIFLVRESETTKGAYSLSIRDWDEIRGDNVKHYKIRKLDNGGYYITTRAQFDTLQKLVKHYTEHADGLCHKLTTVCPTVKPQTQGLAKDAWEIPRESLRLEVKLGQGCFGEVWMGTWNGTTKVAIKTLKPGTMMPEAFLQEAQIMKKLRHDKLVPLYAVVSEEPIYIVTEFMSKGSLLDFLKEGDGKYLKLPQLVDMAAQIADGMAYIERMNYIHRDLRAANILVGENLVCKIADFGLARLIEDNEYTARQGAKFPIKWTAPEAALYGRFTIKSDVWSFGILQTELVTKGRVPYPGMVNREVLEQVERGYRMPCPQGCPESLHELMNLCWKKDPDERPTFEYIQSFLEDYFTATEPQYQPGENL

dose-response relationship (DRR) [1] | "inhibition activity" in the whole range of concentrations [1] | First screening IR (inhibition rate) [2] [%] | Second screening IR (inhibition rate) [2] [%] | IC50 [1] [µM] | SMILES
good DRR |  | 72 | 50 | 20 | Cc1cc(N2CCc3c(ncn3C3CC3)C2)c2cc(OC(F)F)ccc2n1 [Compound Z1252403274]
 |  | -51 |  |  | O=[N+]([O-])c1ccc(N2CCC(C(O)c3ncc[nH]3)CC2)nc1-c1ccccc1 (stereo not drawn) [Compound Z1823608663]
 |  | 9 |  |  | CN1CCC(N(c2ccccc2)S(=O)(=O)c2cc(Cl)cc3c2OCC3)CC1 [Compound Z1833465604]
 |  | 48 |  |  | COc1cccc(-c2cc(-c3ccc(Cl)cc3)c3ccccc3n2)c1 [Compound Z1844441844]
 |  | 9 |  |  | Cc1ccc(-c2cc(-c3cccc(C)c3)nc3ccccc23)cc1 [Compound Z1844441892]
 |  | 0 |  |  | Cc1ccc(-c2cc(-c3cccc(Br)c3)nc3ccccc23)cc1 [Compound Z1847669462]
 |  | 1 |  |  | CC(C)c1ccc(Sc2ccc(N3CCC(C(=O)O)CC3)nn2)cc1 [Compound Z1863492097]
 |  | 1 |  |  | O=c1[nH]c2cc(Cl)ccc2c(-c2ccccc2)c1CN1CCCCC1 [Compound Z1980444406]

More lines, now with the values behind:

SMILES | dose-response relationship (DRR) [1] | "inhibition activity" in the whole range of concentrations [1] | First screening IR (inhibition rate) [2] [%] | Second screening IR (inhibition rate) [2] [%] | IC50 [1] [µM]
CC(=O)Nc1ccc(/C=N/Nc2ncnc3cc(-c4ccc(F)cc4)sc23)cc1 [Compound Z50080181] | did not reveal a DRR | around 50% | 51 | 47 | 
Fc1ccc(-c2cc3ncnc(N/N=C/c4ccncc4)c3s2)cc1 [Compound Z50080378] | did not reveal a DRR | around 50% | 67 | 55 | 
COc1ccc(Br)cc1/C=N/Nc1ncnc2nc[nH]c12 [Compound Z57745307] | did not reveal a DRR | around 50% | 62 | 61 | 
O=C(CSc1ccc2ccccc2n1)Nc1nsc(-c2ccc(Cl)cc2)n1 [Compound Z275023406] | good DRR |  | 67 | 64 | 37.4
CCCC(C)c1cc(NC(=O)c2ccc(N3CCNC3=O)cc2)n[nH]1 (stereo not drawn) [Compound Z1283491630] | did not reveal a DRR | around 50% | 29 | 49 | 
Cc1cc(N2CCN(C(=O)c3cc(Br)cn3C(C)C)CC2)n[nH]1 [Compound Z1784719533] |  |  | -5 |  | 
C#CC(COC)NS(=O)(=O)CCCS(C)(=O)=O (stereo not drawn) [Compound Z1787994415] |  |  | 4 |  | 
Cc1nccn1-c1cncc(NCc2cc(-c3ccccc3)on2)n1 [Compound Z1798299891] |  |  | 19 |  | 
CCNC(=O)c1ccc(NC(C)C(O)c2ccc(F)cc2)nc1 (stereo not drawn) [Compound Z1798329942] |  |  | 35 |  | 
CC(C)c1ccc(-n2cc(O)c(C(=O)NCC(C)N3CCCCC3=O)n2)cc1 (stereo not drawn) [Compound Z1820642882] |  |  | -3 |  | 
Cc1occc1S(=O)(=O)CCCS(=O)(=O)C(C)C [Compound Z1822689954] |  |  | -9 |  | 
CN(c1cc(C#N)ccn1)S(=O)(=O)c1ccccc1S(C)(=O)=O [Compound Z1833478806] |  |  | 7 |  | 
CNS(=O)(=O)c1ccc2c(c1)nc(-c1cc(C#N)n(C)c1)n2C [Compound Z1837787694] |  |  | -2 |  | 
C#CCN(C)S(=O)(=O)c1cc(S(C)(=O)=O)sc1Cl [Compound Z1863649257] |  |  | -18 |  | 
C#CC(C)(C)N(C)S(=O)(=O)c1ccc(S(C)(=O)=O)cc1 [Compound Z1911236831] |  |  | -10 |  | 
CC(CNC(=O)c1ncncc1Br)CN1CCN(C)CC1 (stereo not drawn) [Compound Z1936607769] |  |  | -11 |  | 
